Results as given in patent US20250305982A1, “DEVICE AND METHOD FOR THE DETECTION OF BIOMARKERS ASSOCIATED WITH NEURODEGENERATIVE DISEASES” (CONSEJO NACIONAL DE INVESTIGACIONES CIENTÍFICAS Y TÉCNICAS …, priority 2022, published 2025).
Blank lines part the entries; values can stand above or below the compound they belong to.

How the values were obtained:
AS fibers = target: T1, AS fibers (Homo sapiens, UniProt P37840); assay: Cyclic voltammetry with gold biosensors modified with Doxy-5; format: binding
T1 construct: made in house; host or cells: E. coli BL21
Experimental: A comparative study for different crosslinking agents for the immobilization of Doxy-5 on gold conductive surfaces was performed. 3-mercaptopropionic acid (MPA), which is able to form self-assembled monolayers (SAM) on the substrate thus facilitating its functionalization, was used. Gold was chosen because it is inert for the molecule of interest. Additionally, the use of other agents such as 1-ethyl-3-(3-dimethylaminopropyl) carbodiimide hydrochloride (EDC) and N-hydroxysuccinimide (NHS), either for generating or activating present moieties, is necessary for the formation of covalent bonds with Doxy-5. Concentrations and incubation times were optimized in each modification stage of the gold surface.
Cyclic voltammetry (CV) measurements were first carried out to characterize each of the immobilization stages on a gold substrate. Said measurements were carried out in a cell with tripolar configuration using a platinum electrode as counter electrode, a silver/silver chloride reference electrode, and the modified gold electrodes as working electrodes. The electrolyte [Fe(CN)6]K4, containing the Fe^3+/Fe^2+ redox pair, was used in every characterization assay. […] CV and EIS measurements were also performed in each immobilization stage using phosphate buffer (PBS) at pH 7.4 (FIG. 1). […]

fibrillar AS = target: T2, fibrillar AS (Homo sapiens, UniProt P37840); assay: Sandwich immunoassay, Doxy-5 adsorbed on polystyrene microplates; format: binding
T2 construct: made in house; host or cells: E. coli BL21
Experimental: The design is based on an immunoassay with a conventional sandwich system involving the capture of fibrillar species of AS by Doxy-5, followed by detection with two antibodies: an anti-human AS antibody, and an antibody conjugated to a peroxidase. Briefly, the compound of formula (II) is incubated in polystyrene microplates wherein it is adsorbed. After several rinses, to eliminate any non-adsorbed molecules, the system is incubated with a primary anti-human AS rabbit antibody. After rinsing, the system is then incubated with a secondary anti-rabbit antibody conjugated to peroxidase. The conjugated antibody reacts specifically with the primary antibodies which are bound to the immunocaptured AS. […] After incubating, a blue color develops, whose intensity depends on the concentration and the affinity of Doxy-5 to the AS species. The enzymatic reaction is stopped by the addition of sulfuric acid, which produces a color shift towards yellow which is spectrometrically quantifiable at 450 nm.
(§1) The 96-well polystyrene plate was sensitized by incubation overnight a 4° C. and protected from light with 20 μg/mL of the compound of formula (II) in 20 mM sodium acetate pH 5 (50 μL/well). The plate was rinsed with PBST (PBS 10 mM pH 7.4+Tween-80 0.01%) and blocked with 150 μL/well of a 0.1% lysozyme solution in PBS 10 mM pH 7.4 during 1 h at 37° C. After rinsing, 50 μL of the samples with the analytes of interest prepared in 10 mM PBS pH 7.4 were added to each well, and the plate was incubated at 37° C. for 2 h. […] Immediately thereafter, the developed absorbance is measured with a TECAN Spark microplate reader.
The focus of the immunoassay takes advantage of the generation of a colored compound by action of the peroxidase on the substrate (TMB), which is proportional to the concentration of the AS analytes captured by Doxy-5. The absorbance readings at 450 nm were acquired with a TECAN Spark microplate reader. […]

Tau aggregates (PFF) = assay: Immunoassay, Doxy-5 bound to BSA through glutaraldehyde on polystyrene microplate; format: binding; details: Taum 100 ng/ml, PFF 1/10000 dilution; Doxy-5 40 μg/ml; FIG. 6
Experimental: The sensitization of the wells was carried out as follows: first, the binding sites of the microplate were blocked with albumin. Afterwards, compound of formula (II) was covalently linked to albumin by using glutaraldehyde as the linker.
For this purpose, a 96-well polystyrene microplate was incubated with 150 μL/well of 1% bovine serum albumin (BSA) overnight at 4° C. in a humid chamber. Then, after three cycles of washing with PBST, 50 μL/well of glutaraldehyde at different concentrations (0.1%, 0.5% and 1%) were added to the wells and the plate was kept during specified times (either 10 minutes for every concentration, or 5 minutes for 0.5% and 1%) under a hood. Wells were then washed three times with PBS, and 50 μL/well of Doxy-5 (40 μg/ml) were added. The plate was then incubated at 37° C. for 30 minutes, protected from light. Afterwards, the wells were washed again with PBST, and 50 μL/well of 1M TRIS was added as a glutaraldehyde-inactivating agent. The microplate was then incubated at 37° C. for 30 minutes. […] To stop the reaction, 25 μL/well of 2N H2SO4 were added, and the microplate was immediately read on a microplate reader (Tecan Spark, Austria) at the wavelength of 450 nm.

AS PFF = target: T3, AS PFF (Homo sapiens, UniProt P37840); assay: Comparative binding of immobilized doxycycline hyclate and Doxy-5 to AS aggregates; details: AS aggregates 20 ng/ml; polystyrene microplates; FIG. 8
T3 construct: made in house; host or cells: E. coli BL21
Experimental: as §1, with “h. The plate is then rinsed again, and 50 μL of the anti-AS antibody diluted to 1 μg/ml in 10% bovine fetal serum (BFS in 10 mM PBS pH 7.4) were added to each well, after which the plate was incubated 1.5 h. The plate was rinsed once more and incubated at 37° C. during 1 h with 50 μL/well of the antibody conjugated with peroxidase diluted to 1 μg/ml in 10% bovine fetal serum.” for “h.”
Both doxycycline hyclate and Doxy-5 were immobilized on polystyrene microplates and contacted with AS aggregates (PPF) according to the protocol described in Example 4, using a concentration for the AS aggregates of 20 ng/ml. The binding of the AS aggregates to each molecule was determined as described in Example 4 as well.

amyloid aggregates = details: González-Lizárraga (2017), Medina (2021); cited from earlier work

electrochemical response of the sensor in the presence of the AS fibers (oxidation peak of voltammogram) (AS fibers; CV, -0.6 V to 0.6 V, 30 mV/seg, Doxy-5 on MPA-SAM gold electrode): clear electrochemical response
interference of the AS monomer in CV response (AS fibers; monomer up to 100 ng/ml, response lower than fibers at 0.1 ng/mL): non-existing interference of the monomer
cross-reaction with native (monomeric) AS (fibrillar AS; native AS as negative control): no cross-reaction
signal for binding to AS PFF (AS PFF): significantly higher
Compound: C[C@H]1c2ccc(N)c(O)c2C(=O)C2=C(O)[C@]3(O)C(=O)C(C(N)=O)=C(O)CC3[C@@H](O)C21 (stereo partly shown) [Doxy-5, 9-amino-4-dedimethylamino doxycycline]
AS concentrations showing the best differential reactivity between aggregated and monomeric species (fibrillar AS; wells sensitized with Doxy-5): over 30 ng/mL
affinity towards fibrillar AS (fibrillar AS; wells sensitized with Doxy-5, absorbance 450 nm): nanomolar affinity
discrimination between Tau monomer (Taum) and pre-formed fibrils (PFF), signal at 450 nm (Tau aggregates (PFF)): higher signal for PFF compared with Taum and PBS

Compound: Nc1c(/N=N/c2ccc(-c3ccc(/N=N/c4cc(S(=O)(=O)O)c5ccccc5c4N)cc3)cc2)cc(S(=O)(=O)O)c2ccccc12 [Congo red]
binding to amyloid aggregates structures (amyloid aggregates): strong and specific binding

signal for binding to AS PFF (AS PFF): positive signal
Compound: doxycycline hyclate [reference compound]

Compound: Cc1ccc2c(c1)sc(-c1ccc(N(C)C)cc1)[n+]2C.[Cl-] [Thioflavin T]
binding to amyloid aggregates structures (amyloid aggregates): strong and specific binding
